Publication PMC4919643, “Intestinally-targeted TGR5 agonists equipped with quaternary ammonium have an improved hypoglycemic effect and reduced gallbladder filling effect” (Scientific Reports, 2016)

Tests used:
ob/ob mice = assay: Gallbladder filling assay in ob/ob mice; type: in vivo, mouse; details: once a day oral dose 100 mg/kg (single dose)
Procedure: Figure 8 (A) Relative gallbladder area and (B) relative bile weight after once a day oral dose or 3-day treatment. […] 1 h after the final dose, mice were re-fed for 3 h and then the gallbladder was removed and the area measured using a vernier caliper. The relative gallbladder area was calculated from the length multiplied by the width of the gallbladder. Bile weight was measured using analytical balances. **p < 0.01; ***p < 0.001. Error bar indicates SEM.
Acute efficacy in ob/ob mice. 7-week-old ob/ob mice (male) were divided into three groups (n = 8) based on 2 h-fasted blood glucose. […]
mg/kg) and 0.25% CMC (control) was then orally administered to 2 h-fasted mice, and blood glucose was measured at 2, 4, 6, 8, 10, and 24 h after dosing. […]
then divided into 3 subgroup of different time point (n = 8-9 each subgroup). […] Concentrations of active GLP-1[7-36 amide] in the serum were measured using ELISA kit from Linco Research. […]
administered to 12 h-fasted ob/ob mice (n = 3 per time point). […] After centrifugation at 11000 rpm for 5 mins, the supernatant was analyzed by LC-MS/MS. […]
administered orally to overnight-fasted ob/ob mice (male, n = 3-6). 1 h after dosing, mice were refed for 3 hours, and then gallbladders were removed, and the area was measured using vernier caliper. The relative gallbladder area was calculated from the length multiplied by the width of the gallbladder. […]

[1] = Caco-2 permeability determination; type: in vitro ADME; details: human
Procedure: Caco-2 permeability determination. Caco-2 permeability determination was carried out […]
Caco-2 cells were obtained from the ATCC (Cat#HTB-37) and maintained in Dulbecco’s modified Eagle’s Medium containing 10% fetal bovine serum, 1% glutamine, 1% nonessential amino acids, 100 μg/mL streptomycin, and 100 U/mL penicillin.
CO2 and 90% relative humidity environment. Caco-2 cells were passaged every 7 days at a ratio of 1:10. Cells were used between passages 30 and 40. After 21 days of culture, the integrity of the cell monolayer was verified by measuring the transepithelial electrical […]
Drug transport from the apical side to the basolateral side (A-B) and from the basolateral side to the apical side was measured simultaneously under the same condition.
Propranolol and atenolol were used as the […] control, respectively.
Digoxin was used as the positive control for Pgp-mediated drug efflux. In brief, the method was as follows. After washing the monolayer with HBSS three times, the compounds were diluted and added to the appropriate well (pH 6.8 for apical side and pH […]
7.4 for basolateral side). […] Samples were […]
collected from the donor side at 5 and 95 min, and from the receiver side at 35 and 95 min post-incubation. The concentration of samples was measured by LC-MS/MS. The Papp was calculated from the following equation:
Papp = (VA/(SA×T))×([drug]acceptor/ [durg]initial donor )
Where VA is the volume of the acceptor well, SA is the surface area of the membrane, T is the total transport time, [drug]acceptor is the drug level at the acceptor side, and [drug]initial donor is the drug level at the donor side at T = 0. […]

mouse TGR5 = target: T1, mouse TGR5 (Mus musculus, UniProt Q80SS6); assay: In vitro TGR5 reporter gene assay (mTGR5/CRE/HEK293)
T1 sequence (Q80SS6 1-329): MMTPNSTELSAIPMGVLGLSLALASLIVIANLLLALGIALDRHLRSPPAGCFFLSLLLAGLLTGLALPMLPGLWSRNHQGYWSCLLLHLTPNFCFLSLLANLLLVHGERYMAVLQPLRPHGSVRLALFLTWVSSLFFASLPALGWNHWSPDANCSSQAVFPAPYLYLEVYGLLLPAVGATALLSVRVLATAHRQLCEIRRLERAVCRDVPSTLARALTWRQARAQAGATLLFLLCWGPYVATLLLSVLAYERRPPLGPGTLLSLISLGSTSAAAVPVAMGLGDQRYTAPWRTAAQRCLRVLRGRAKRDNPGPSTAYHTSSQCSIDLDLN

[2] = target: T2, farnesyl X receptor (FXR) (Homo sapiens, UniProt Q96RI1); assay: FXR assay (LanthaScreen TR-FRET coactivator assay)
T2 sequence (Q96RI1 262-486 limits assumed): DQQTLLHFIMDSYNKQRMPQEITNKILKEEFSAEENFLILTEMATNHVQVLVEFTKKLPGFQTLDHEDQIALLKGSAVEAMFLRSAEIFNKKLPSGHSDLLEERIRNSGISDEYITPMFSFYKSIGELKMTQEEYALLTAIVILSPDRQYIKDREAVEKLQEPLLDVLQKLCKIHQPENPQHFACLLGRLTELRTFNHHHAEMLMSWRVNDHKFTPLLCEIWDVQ

Papp A→B at 95 min ([1]; Caco-2, apical to basolateral side): 0.06 ×10⁻⁶ cm/s | Papp B→A at 95 min ([1]; Caco-2, basolateral to apical side): 0.8 ×10⁻⁶ cm/s | EC50 (mouse TGR5): 0.71 nM | concentration up to which activation of FXR was not observed [2]: > 100 µM
SMILES: CN(CC[N+](C)(C)C)C(=O)CCc1cc(Cl)c(Oc2ccsc2C(=O)N2CCN(C3CC3)c3ccccc32)cc1Cl [Compound 26a]
bile weight vs control (ob/ob mice): did not increase gallbladder area or bile weight significantly | gallbladder area vs control (ob/ob mice): did not increase gallbladder area or bile weight significantly
